Reference: patent US8889711B2, “Pyrazolopyridine derivatives as anticancer agent” (Pierre Fabre Medicament, priority 2009, dated 2014)

Assays:
ALK kinase = ALK kinase (Homo sapiens, UniProt Q9UM73); test: Test to measure ALK kinase inhibition (GST-PLCγ1 substrate, anti-phosphotyrosine ELISA, luminescence); type: biochemical; settings: ALK kinase 180 ng/ml, 250 μM ATP, 30 minutes at 30° C.
Method: Test to Measure ALK Kinase Inhibition
A ViewPlate (Packard) is incubated with the GST-PLCγ1 substrate (purified recombinant form) at 0.1 mg/ml in phosphate buffer (PBS pH 7.4)(100 μl/well) for one hour under shaking. The plate is then saturated with a blocking solution containing 5% bovine serum albumin (BSA) (SIGMA) in PBS buffer pH 7.4.
After adding the inhibitor at the desired final concentration (usual range of 30 μM to 10 nM), the reaction is conducted by adding the ALK kinase at 180 ng/ml in 13 mM Tris reaction buffer pH 7.5 (SIGMA); 6.5 mM MgCl2 (MERCK); 0.65 mM DiThioThreitol (DTT) (ACROS); 39 mM sodium β-glycerophosphate (TCI); 0.65 mM sodium orthovanadate (SIGMA) and 250 μM ATP (SIGMA). Incubation is carried out for 30 minutes at 30° C. under shaking.
After three washings under shaking in 0.1% PBS/Tween-20 buffer (SIGMA), an anti-phosphotyrosine antibody coupled with HRP (UBI) diluted to 1/1000th in PBS/BSA buffer 5 mg/ml, is incubated for one hour under shaking. After three further washings in 0.1% PBS/Tween-20, the wells are incubated two minutes with 100 μl of SuperSignal ELISA mixture (PIERCE).
The signal is read in luminescent mode using a luminometer (MOLECULAR DEVICES SpectraMax M5e).

karpas 299 cells = test: Measurement of inhibition of cell proliferation (Karpas), ATPlite; type: cell-based
Method: Measurement of Inhibition of Cell Proliferation (Karpas):
The antiproliferative activities of the compounds were measured using the ATPlite technique (Perkin Elmer).
The non-adhering cells (karpas 299) are seeded in 96-well plates (300 000 cells/ml) on Day 1 at a concentration compatible with logarithmic growth for 72 hours required for evaluation of the compounds. All the cells are treated on Day 1, then placed in an incubator at 37° C. under 5% CO2 atmosphere. Cell viability is evaluated on Day 4 by assay of released ATP, characteristic of viable cells. The IC50 values are determined by non-linear regression on the basis of a sigmoid model of dose/response relationship, Hill's slope coefficient being left variable, performed using GraphPad software sequence with the supplied algorithm.

Chain of ALK kinase (Q9UM73 19-1620): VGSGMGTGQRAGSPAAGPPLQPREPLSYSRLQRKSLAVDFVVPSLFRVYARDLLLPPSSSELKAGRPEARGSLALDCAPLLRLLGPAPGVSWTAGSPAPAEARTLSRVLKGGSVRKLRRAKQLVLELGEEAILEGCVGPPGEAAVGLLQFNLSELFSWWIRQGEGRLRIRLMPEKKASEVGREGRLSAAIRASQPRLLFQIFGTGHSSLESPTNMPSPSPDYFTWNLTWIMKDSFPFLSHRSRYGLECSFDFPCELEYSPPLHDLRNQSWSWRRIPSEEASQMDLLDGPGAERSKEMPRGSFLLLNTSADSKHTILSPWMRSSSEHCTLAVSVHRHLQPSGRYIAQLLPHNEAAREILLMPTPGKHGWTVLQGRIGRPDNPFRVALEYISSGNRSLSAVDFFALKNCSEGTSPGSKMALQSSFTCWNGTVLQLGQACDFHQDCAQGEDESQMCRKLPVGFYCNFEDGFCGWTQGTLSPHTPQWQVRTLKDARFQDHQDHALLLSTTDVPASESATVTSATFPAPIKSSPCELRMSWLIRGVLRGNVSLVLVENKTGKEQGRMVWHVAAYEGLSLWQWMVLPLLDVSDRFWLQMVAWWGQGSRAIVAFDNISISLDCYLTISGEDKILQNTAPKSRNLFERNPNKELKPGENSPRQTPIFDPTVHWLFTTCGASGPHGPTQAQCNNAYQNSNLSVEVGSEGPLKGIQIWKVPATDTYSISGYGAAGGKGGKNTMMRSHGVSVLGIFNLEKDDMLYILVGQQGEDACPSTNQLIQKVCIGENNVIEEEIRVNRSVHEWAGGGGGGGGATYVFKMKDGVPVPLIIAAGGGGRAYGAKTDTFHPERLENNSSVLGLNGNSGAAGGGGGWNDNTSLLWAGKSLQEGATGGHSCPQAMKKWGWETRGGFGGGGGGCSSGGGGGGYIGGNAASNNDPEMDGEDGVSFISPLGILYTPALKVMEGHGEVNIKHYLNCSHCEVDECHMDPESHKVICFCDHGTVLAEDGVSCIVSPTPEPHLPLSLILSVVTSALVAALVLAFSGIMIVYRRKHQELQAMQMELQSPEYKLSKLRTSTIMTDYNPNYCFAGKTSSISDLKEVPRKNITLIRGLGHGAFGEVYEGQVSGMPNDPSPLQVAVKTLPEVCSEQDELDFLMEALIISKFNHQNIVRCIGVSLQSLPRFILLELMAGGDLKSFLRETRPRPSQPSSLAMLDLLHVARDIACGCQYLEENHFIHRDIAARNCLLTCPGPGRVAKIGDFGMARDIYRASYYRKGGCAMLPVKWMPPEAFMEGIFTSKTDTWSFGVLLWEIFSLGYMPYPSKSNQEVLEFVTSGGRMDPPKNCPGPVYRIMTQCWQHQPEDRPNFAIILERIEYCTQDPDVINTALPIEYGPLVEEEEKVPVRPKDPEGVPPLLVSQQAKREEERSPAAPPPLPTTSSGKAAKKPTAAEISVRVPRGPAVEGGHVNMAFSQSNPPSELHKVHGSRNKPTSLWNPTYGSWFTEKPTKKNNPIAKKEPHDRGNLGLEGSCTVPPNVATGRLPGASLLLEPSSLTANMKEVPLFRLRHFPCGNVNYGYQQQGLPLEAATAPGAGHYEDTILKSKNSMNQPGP

IC50 (ALK kinase) | IC50 (karpas 299 cells; Homo sapiens, KARPAS-299, 72 h) | IC50 (karpas 299 cells; 72 hours) | SMILES
0.1 to 1 µM | 1 to 10 µM |  | Cc1cc(-c2n[nH]c3nc(-c4ccc(O)cc4F)c(C#N)c(C)c23)no1 [Compound 120]
< 0.1 µM | 1 to 10 µM |  | N#Cc1c(-c2ccc(O)cc2F)nc2[nH]nc(N)c2c1-c1ccc(N2CCNCC2)cc1 [Compound 121]
< 0.1 µM | 1 to 10 µM |  | Cc1n[nH]c2nc(-c3ccc(O)cc3F)c(C#N)c(-c3ccc(N4CC[C@@H](N)C4)o3)c12 [Compound 122]
0.1 to 1 µM | 1 to 10 µM |  | CNC1CCN(c2ccc(-c3n[nH]c4nc(-c5ccc(O)cc5F)c(C#N)c(C)c34)cn2)C1 (stereo not shown) [Compound 123]
< 0.1 µM | 1 to 10 µM |  | Cc1n[nH]c2nc(-c3ccc(O)cc3F)c(C#N)c(-c3ccc(N4CC[C@@H](N)C4)nc3)c12 [Compound 124]
< 0.1 µM | 0.1 to 1 µM |  | CNC1CCN(c2ccc(-c3c(C#N)c(-c4ccc(O)cc4F)nc4[nH]nc(C)c34)o2)C1 (stereo not shown) [Compound 130]
0.1 to 1 µM | 1 to 10 µM |  | Cc1n[nH]c2nc(-c3ccc(O)cc3F)c(C#N)c(-c3ccc(N4CCNCC4)nc3)c12 [Compound 131]
< 0.1 µM | > 10 µM |  | CCN(CC)CCSc1ccc(-c2c(C#N)c(-c3ccc(O)cc3F)nc3[nH]nc(C)c23)o1 [Compound 132]
< 0.1 µM | 0.1 to 1 µM |  | Cc1n[nH]c2nc(-c3ccc(O)cc3F)c(C#N)c(-c3ccc(N4CCC(N)CC4)o3)c12 [Compound 133]
< 0.1 µM | 1 to 10 µM |  | Cc1n[nH]c2nc(-c3ccc(O)cc3F)c(C#N)c(-c3ccc(N4CC[C@H](N)C4)o3)c12 [Compound 134]
0.1 to 1 µM | > 10 µM |  | Cc1n[nH]c2nc(-c3ccc(O)cc3F)c(C#N)c(C(=O)NN3CCN(C)CC3)c12 [Compound 135]
1 to 10 µM | > 10 µM |  | Cc1n[nH]c2nc(-c3ccc(O)cc3F)c(C#N)c(C(=O)NCCN3CCOCC3)c12 [Compound 136]
0.1 to 1 µM | > 10 µM |  | Cc1n[nH]c2nc(-c3ccc(O)cc3F)c(C#N)c(-c3ccc(S(=O)(=O)O)o3)c12 [Compound 137]
0.1 to 1 µM | > 10 µM |  | Cc1n[nH]c2nc(-c3ccc(O)cc3F)c(C#N)c(C3C[C@@H]3C(=O)NCC3CCNCC3)c12 (stereo partly shown) [Compound 138]
< 0.1 µM |  | > 10 µM | Cc1n[nH]c2nc(-c3ccc(O)cc3F)c(C#N)c(-c3ccc(N4CCC(N5CCN(C)CC5)CC4)o3)c12 [Compound 142]
1 to 10 µM | > 10 µM |  | Cc1n[nH]c2nc(-c3ccc(O)cc3F)c(C#N)c(-c3ccc([N+](=O)[O-])cc3)c12 [Compound 143]
0.1 to 1 µM | > 10 µM |  | Cc1n[nH]c2nc(-c3ccc(O)cc3F)c(C#N)c(C3C[C@@H]3C(=O)N3CCNCC3)c12 (stereo partly shown) [Compound 146]
1 to 10 µM | > 10 µM |  | Cc1n[nH]c2nc(-c3ccc(O)cc3F)c(C#N)c(C3C[C@@H]3C(=O)N3CC[C@@H](N)C3)c12 (stereo partly shown) [Compound 147]
1 to 10 µM | 1 to 10 µM |  | Cc1n[nH]c2nc(-c3ccc(O)cc3F)c(C#N)c(-c3ccc(C#N)cc3)c12 [Compound 148]
0.1 to 1 µM | > 10 µM |  | Cc1n[nH]c2nc(-c3ccc(O)cc3F)c(C#N)c(-c3cnc(N)s3)c12 [Compound 150]
0.1 to 1 µM |  | > 10 µM | Cc1n[nH]c2nc(-c3ccc(O)cc3F)c(C#N)c(-c3csc(C4CCNCC4)n3)c12 [Compound 152]
< 0.1 µM | 1 to 10 µM |  | Cc1n[nH]c2nc(-c3ccc(O)cc3F)c(C#N)c(-c3ccc(N4CCC(O)CC4)o3)c12 [Compound 153]
< 0.1 µM | 0.1 to 1 µM |  | Cc1n[nH]c2nc(-c3c(F)cc(O)cc3F)c(C#N)c(-c3ccc(N4CCNCC4)cc3)c12 [Compound 154]
< 0.1 µM | 1 to 10 µM |  | Cc1n[nH]c2nc(-c3c(F)cc(O)cc3F)c(C#N)c(-c3ccc(N4CC[C@@H](N)C4)o3)c12 [Compound 155]
< 0.1 µM | 0.1 to 1 µM |  | Cc1n[nH]c2nc(-c3ccc(O)cc3F)c(C#N)c(-c3ccc(N4CC[C@@H](O)C4)o3)c12 [Compound 156]
1 to 10 µM | > 10 µM |  | Cc1n[nH]c2nc(-c3ccc([N+](=O)[O-])cc3F)c(C#N)c(-c3ccc(N4CCNCC4)cc3)c12 [Compound 158]

IC50 (ALK kinase) | IC50 (karpas 299 cells; Homo sapiens, KARPAS-299, 72 h) | IC50 (karpas 299 cells; 72 hours) | SMILES
< 0.1 µM | 0.1 to 1 µM |  | Cc1n[nH]c2nc(-c3ccc(O)cc3F)c(C#N)c(-c3ccc(N4CCC(N(C)C)C4)o3)c12 (stereo not shown) [Compound 159]
1 to 10 µM | > 10 µM |  | Cc1n[nH]c2nc(-c3ccc(N)cc3F)c(C#N)c(-c3ccc(N4CCNCC4)cc3)c12 [Compound 160]
0.1 to 1 µM | > 10 µM |  | Cc1n[nH]c2nc(-c3c(F)ccc(F)c3F)c(C#N)c(-c3ccc(N4CCNCC4)cc3)c12 [Compound 161]
< 0.1 µM | 0.1 to 1 µM |  | Cc1n[nH]c2nc(-c3ccc(O)cc3F)c(C#N)c(-c3ccc(N4CCC(N5CCCC5)CC4)o3)c12 [Compound 162]
< 0.1 µM | 1 to 10 µM |  | Cc1n[nH]c2nc(-c3ccc(O)cc3F)c(C#N)c(-c3ccc(N4CCC(CN)C4)o3)c12 (stereo not shown) [Compound 163]
0.1 to 1 µM | > 10 µM |  | N#Cc1c(-c2ccc(O)cc2F)nc2[nH]nc(N)c2c1-c1ccc(N2CC3CNCC3C2)o1 (stereo not shown) [Compound 164]
0.1 to 1 µM |  | 1 to 10 µM | Cc1n[nH]c2nc(-c3ccc(O)cc3F)c(C#N)c(-c3csc(C4CCNCC4)n3)c12 [Compound 165]
0.1 to 1 µM | 1 to 10 µM |  | Cc1n[nH]c2nc(-c3ccc(O)cc3F)c(C#N)c(-c3cnc(N4CCN(C)CC4)s3)c12 [Compound 167]
1 to 10 µM | > 10 µM |  | Cc1n[nH]c2nc(-c3ccc(O)cc3F)c(C#N)c(C(=O)NC3CCNCC3)c12 [Compound 168]
< 0.1 µM |  | 0.1 to 1 µM | Cc1n[nH]c2nc(-c3ccc(O)cc3F)c(C#N)c(-c3ccc(N4CCC(N5CCN(C)CC5)CC4)o3)c12 [Compound 169]
0.1 to 1 µM | 0.1 to 1 µM |  | Cc1n[nH]c2nc(-c3ccc(O)cc3F)c(C#N)c(-c3ccc(N4CCOCC4)o3)c12 [Compound 171]
0.1 to 1 µM | 1 to 10 µM |  | Cc1n[nH]c2nc(-c3ccc(O)cc3F)c(C#N)c(-c3ccc(N4CCNCC4)o3)c12 [Compound 172]
0.1 to 1 µM | 1 to 10 µM |  | Cc1n[nH]c2nc(-c3ccc(O)c(Br)c3)c(C#N)c(-c3ccc(N4CCNCC4)cc3)c12 [Compound 175]
0.1 to 1 µM | 0.1 to 1 µM |  | Cc1cc(-c2nc3[nH]nc(C)c3c(-c3ccc(N4CCNCC4)cc3)c2C#N)ccc1O [Compound 176]
0.1 to 1 µM | 1 to 10 µM |  | COc1cc(-c2c(C#N)c(-c3ccc(O)cc3F)nc3[nH]nc(C)c23)ccc1OCCCN(C)C [Compound 177]
< 0.1 µM | 0.1 to 1 µM |  | Cc1n[nH]c2nc(-c3ccc(O)cc3F)c(C#N)c(-c3ccc(OCCCN(C)C)cc3)c12 [Compound 178]
< 0.1 µM | 0.1 to 1 µM |  | Cc1n[nH]c2nc(-c3ccc(O)c(Cl)c3)c(C#N)c(-c3ccc(N4CCNCC4)cc3)c12 [Compound 180]
< 0.1 µM | 1 to 10 µM |  | N#Cc1c(-c2ccc(O)cc2F)nc2[nH]nc(N)c2c1-c1ccc(N2CCNCC2)cc1F [Compound 181]
< 0.1 µM |  | 1 to 10 µM | Cc1n[nH]c2nc(-c3ccc(O)cc3F)c(C#N)c(-c3ccc(N4CCNCC4)cc3)c12 [Compound 182]
< 0.1 µM | 1 to 10 µM |  | N#Cc1c(-c2ccc(O)cc2F)nc2[nH]nc(N)c2c1-c1ccc(N2CCOCC2)o1 [Compound 183]
< 0.1 µM | 0.1 to 1 µM |  | Cc1n[nH]c2nc(-c3ccc(O)cc3F)c(C#N)c(-c3ccc(N4CCN(C)CC4)s3)c12 [Compound 184]
< 0.1 µM | 1 to 10 µM |  | Cc1cc(-c2nc3[nH]nc(N)c3c(-c3ccc(N4CCNCC4)cc3)c2C#N)ccc1O [Compound 187]
< 0.1 µM | 1 to 10 µM |  | N#Cc1c(-c2ccc(O)cc2F)nc2[nH]nc(N)c2c1-c1ccc(N2CC[C@H](N)C2)cc1 [Compound 188]
0.1 to 1 µM | 1 to 10 µM |  | Cc1cc(O)ccc1-c1nc2[nH]nc(C)c2c(-c2ccc(N3CCNCC3)cc2)c1C#N [Compound 189]
< 0.1 µM | 1 to 10 µM |  | N#Cc1c(-c2ccc(O)cc2F)nc2[nH]nc(N)c2c1-c1ccc(N2CCC(N)CC2)o1 [Compound 190]
< 0.1 µM | 1 to 10 µM |  | CN(C)CCCN(C)c1ccc(-c2c(C#N)c(-c3ccc(O)cc3F)nc3[nH]nc(N)c23)cc1 [Compound 191]

SMILES | IC50 (ALK kinase) | IC50 (karpas 299 cells; Homo sapiens, KARPAS-299, 72 h) | IC50 (karpas 299 cells; 72 hours)
N#Cc1c(-c2ccc(O)cc2F)nc2[nH]nc(N)c2c1-c1ccc(C2=CCNCC2)cc1 [Compound 186] | < 0.1 µM | 1 to 10 µM | 
